Experimental data: ChEMBL document CHEMBL5346952, “Dimer Peptide Ligands of Vascular Endothelial Growth Factor: Optimizing Linker Length for High Affinity and Antiangiogenic Activity” (J Med Chem, 2023)
Starred links: 1 amine or outer side, 2 acyl side, 3 side chain; linkers in the order of their positions; H or OH if unused. Positions of bridges follow the written chain, without caps; N, C: chain ends. Residues, ends and D or L forms follow the SMILES beside them. Chains are numbered I, II in the order given. *: point of attachment. X1 = O=C(CCOCCOCCOCCOCCOCCOCCOCCOCCOCCOCCOCCOCCOCCOCCOCCOCCOCCOCCOCCOCCOCCOCCOCCOCCOCCC(=O)[*:2])[*:1]; X2 = O=C(O)CCOCCOCCOCCOCCOCCOCCOCCOCCOCCOCCOCCOCCOCCOCCOCCOCCOCCOCCOCCOCCOCCOCCOCCOCCOCCC(=O)*; CO(CH2CH2O)5CH2CH2CO = O=C(CCOCCOCCOCCOCCOCCC(=O)[*:2])[*:1]

What was measured:
[1] = target: T1, Vascular endothelial growth factor A, long form (Homo sapiens) (UniProt P15692); test: Binding affinity to human VEGF (13 to 107 residues) expressed in Escherichia coli Rosetta (DE3) cells assessed as change in enthalpy at 20 degreeC by isothermal titration calorimetry analysis
T1 sequence (whole entry): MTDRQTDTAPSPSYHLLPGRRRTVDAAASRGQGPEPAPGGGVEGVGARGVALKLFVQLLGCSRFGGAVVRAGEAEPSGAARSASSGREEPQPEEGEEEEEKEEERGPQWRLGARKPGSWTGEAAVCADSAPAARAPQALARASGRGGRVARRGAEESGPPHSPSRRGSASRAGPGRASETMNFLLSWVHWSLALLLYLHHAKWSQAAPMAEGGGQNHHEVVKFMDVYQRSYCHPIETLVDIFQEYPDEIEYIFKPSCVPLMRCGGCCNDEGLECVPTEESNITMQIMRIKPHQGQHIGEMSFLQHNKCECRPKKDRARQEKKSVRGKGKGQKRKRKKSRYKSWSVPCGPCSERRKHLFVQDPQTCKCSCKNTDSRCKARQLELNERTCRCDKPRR

[2] = target: T1, Vascular endothelial growth factor A, long form (Homo sapiens); test: Binding affinity to human VEGF (13 to 107 residues) expressed in Escherichia coli Rosetta (DE3) cells assessed as Gibbs free energy change at 37 degreeC by isothermal titration calorimetry analysis
HUVEC [3] = test: Antiangiogenic activity in human HUVEC cells assessed as inhibition of VEGFA-induced capillary tube formation incubated for 6 hrs by matrigel based microscopic analysis; assay type: functional, cell-based
[4] = target: T1, Vascular endothelial growth factor A, long form (Homo sapiens); test: Binding affinity to human VEGF (13 to 107 residues) expressed in Escherichia coli Rosetta (DE3) cells assessed as change in enthalpy at 37 degreeC by isothermal titration calorimetry analysis
[5] = target: T2, Vascular endothelial growth factor A, long form (Homo sapiens, UniProt P15692); test: Binding affinity to human VEGF (13 to 107 residues) expressed in Escherichia coli Rosetta (DE3) cells assessed as dissociation constant at 37 degreeC by isothermal titration calorimetry analysis
T2 sequence (P15692 whole entry): T1 sequence (whole entry)

[6] = target: T1, Vascular endothelial growth factor A, long form (Homo sapiens); test: Binding affinity to human VEGF (13 to 107 residues) expressed in Escherichia coli Rosetta (DE3) cells assessed as change in heat capacity at 20 degreeC by isothermal titration calorimetry analysis
[7] = target: T1, Vascular endothelial growth factor A, long form (Homo sapiens); test: Binding affinity to human VEGF (13 to 107 residues) expressed in Escherichia coli Rosetta (DE3) cells assessed as Gibbs free energy change at 20 degreeC by isothermal titration calorimetry analysis
[8] = target: T1, Vascular endothelial growth factor A, long form (Homo sapiens); test: Binding affinity to human VEGF (13 to 107 residues) expressed in Escherichia coli Rosetta (DE3) cells assessed as change in entropy at 20 degreeC by isothermal titration calorimetry analysis
HUVEC [9] = test: Antiangiogenic activity in human HUVEC cells assessed as inhibition of VEGFA-induced cell migration incubated for 12 hrs by wound healing assay; assay type: functional, cell-based
[10] = target: T2, Vascular endothelial growth factor A, long form; test: Binding affinity to human VEGF (13 to 107 residues) expressed in Escherichia coli Rosetta (DE3) cells assessed as dissociation constant at 20 degreeC by isothermal titration calorimetry analysis
[11] = target: T1, Vascular endothelial growth factor A, long form (Homo sapiens); test: Binding affinity to human VEGF (13 to 107 residues) expressed in Escherichia coli Rosetta (DE3) cells assessed as change in entropy at 37 degreeC by isothermal titration calorimetry analysis
[12] = target: T2, Vascular endothelial growth factor A, long form; test: Binding affinity to human VEGF (13 to 107 residues) expressed in Escherichia coli Rosetta (DE3) cells assessed as dissociation constant at 20 degreeC by reverse titration based isothermal titration calorimetry analysis
[13] = target: T1, Vascular endothelial growth factor A, long form (Homo sapiens); test: Binding affinity to human VEGF (13 to 107 residues) expressed in Escherichia coli Rosetta (DE3) cells assessed as change in enthalpy at 20 degreeC by reverse titration based isothermal titration calorimetry analysis
[14] = target: T1, Vascular endothelial growth factor A, long form (Homo sapiens); test: Binding affinity to human VEGF (13 to 107 residues) expressed in Escherichia coli Rosetta (DE3) cells assessed as change in entropy at 20 degreeC by direct titration based isothermal titration calorimetry analysis
[15] = target: T2, Vascular endothelial growth factor A, long form; test: Binding affinity to human VEGF (13 to 107 residues) expressed in Escherichia coli Rosetta (DE3) cells assessed as dissociation constant at 20 degreeC by direct titration based isothermal titration calorimetry analysis
[16] = target: T1, Vascular endothelial growth factor A, long form (Homo sapiens); test: Binding affinity to human VEGF (13 to 107 residues) expressed in Escherichia coli Rosetta (DE3) cells assessed as change in enthalpy at 37 degreeC by reverse titration based isothermal titration calorimetry analysis
[17] = target: T1, Vascular endothelial growth factor A, long form (Homo sapiens); test: Binding affinity to human VEGF (13 to 107 residues) expressed in Escherichia coli Rosetta (DE3) cells assessed as change in entropy at 20 degreeC by reverse titration based isothermal titration calorimetry analysis
[18] = target: T1, Vascular endothelial growth factor A, long form (Homo sapiens); test: Binding affinity to human VEGF (13 to 107 residues) expressed in Escherichia coli Rosetta (DE3) cells assessed as change in enthalpy at 20 degreeC by direct titration based isothermal titration calorimetry analysis
[19] = target: T2, Vascular endothelial growth factor A, long form; test: Binding affinity to human VEGF (13 to 107 residues) expressed in Escherichia coli Rosetta (DE3) cells assessed as dissociation constant at 37 degreeC by reverse titration based isothermal titration calorimetry analysis
[20] = target: T1, Vascular endothelial growth factor A, long form (Homo sapiens); test: Binding affinity to human VEGF (13 to 107 residues) expressed in Escherichia coli Rosetta (DE3) cells assessed as change in entropy at 37 degreeC by direct titration based isothermal titration calorimetry analysis
[21] = target: T1, Vascular endothelial growth factor A, long form (Homo sapiens); test: Binding affinity to human VEGF (13 to 107 residues) expressed in Escherichia coli Rosetta (DE3) cells assessed as change in enthalpy at 37 degreeC by direct titration based isothermal titration calorimetry analysis
[22] = target: T2, Vascular endothelial growth factor A, long form; test: Binding affinity to human VEGF (13 to 107 residues) expressed in Escherichia coli Rosetta (DE3) cells assessed as dissociation constant at 37 degreeC by direct titration based isothermal titration calorimetry analysis
[23] = target: T1, Vascular endothelial growth factor A, long form (Homo sapiens); test: Binding affinity to human VEGF (13 to 107 residues) expressed in Escherichia coli Rosetta (DE3) cells assessed as change in entropy at 37 degreeC by reverse titration based isothermal titration calorimetry analysis

SMILES | deltaH [1] [kcal/mol] | deltaG [2] [kcal/mol] | Activity (HUVEC [3]) | deltaH [4] [kcal/mol] | Kd [5] [nM] | DeltaCp [6] [kcal/mol/K] | deltaG [7] [kcal/mol] | -TdeltaS [8] [kcal/mol] | Activity (HUVEC [9]) | Kd [10] [nM] | -TdeltaS [11] [kcal/mol] | also measured
CC[C@H](C)[C@@H]1NC(=O)[C@H](CC(=O)O)NC(=O)[C@@H](NC(C)=O)CSSC[C@@H]2NC(=O)[C@H](CCCCNC(=O)C[C@@H](C(=O)N[C@@H](CC(C)C)C(N)=O)NC(=O)[C@H](CCC(=O)O)NC(=O)[C@H](Cc3ccccc3)NC2=O)NC(=O)[C@H](Cc2c[nH]c3ccccc23)NC(=O)[C@H](CCC(=O)O)NC(=O)[C@H](Cc2c[nH]c3ccccc23)NC(=O)[C@H](CCCCNC(C)=O)NC(=O)[C@H](C(C)C)NC(=O)[C@H](Cc2cnc[nH]2)NC1=O (Ac-CDIHVK(Ac)WEWKCFEDL-NH2; disulfide 1-11; lactam 10-14) | -19.5 | -9.32 | Dose-Dependent Effect | -25.5 | 272 | -0.36 | -9.79 | 9.66 | Dose-Dependent Effect | 50 | 16.2 | –
CC[C@H](C)[C@@H]1NC(=O)[C@H](CC(=O)O)NC(=O)[C@@H](NC(C)=O)CSSC[C@@H]2NC(=O)[C@H](CCCCNC(=O)C[C@@H](C(=O)N[C@@H](CC(C)C)C(N)=O)NC(=O)[C@H](CCC(=O)O)NC(=O)[C@H](Cc3ccccc3)NC2=O)NC(=O)[C@H](Cc2c[nH]c3ccccc23)NC(=O)[C@H](CCC(=O)O)NC(=O)[C@H](Cc2c[nH]c3ccccc23)NC(=O)[C@H](CCCCNC(=O)CCOCCOCCOCCOCCOCCOCCOCCOCCOCCOCCOCCOCCOCCOCCOCCOCCOCCOCCOCCOCCOCCOCCOCCOCCOCCC(=O)O)NC(=O)[C@H](C(C)C)NC(=O)[C@H](Cc2cnc[nH]2)NC1=O (Ac-CDIHVK(X2)WEWKCFEDL-NH2; disulfide 1-11; lactam 10-14) | -18.6 | -8.5 | Dose-Dependent Effect | -24 | 1030 | -0.31 | -9.12 | 9.51 | Dose-Dependent Effect | 158 | 15.5 | –
CC[C@H](C)[C@@H]1NC(=O)[C@H](CC(=O)O)NC(=O)[C@@H](NC(C)=O)CSSC[C@@H]2NC(=O)[C@H](CCCCNC(=O)C[C@@H](C(=O)N[C@@H](CC(C)C)C(N)=O)NC(=O)[C@H](CCC(=O)O)NC(=O)[C@H](Cc3ccccc3)NC2=O)NC(=O)[C@H](Cc2c[nH]c3ccccc23)NC(=O)[C@H](CCC(=O)O)NC(=O)[C@H](Cc2c[nH]c3ccccc23)NC(=O)[C@H](CCCCNC(=O)CCOCCOCCOCCOCCOCCC(=O)NCCCC[C@@H]2NC(=O)[C@H](C(C)C)NC(=O)[C@H](Cc3cnc[nH]3)NC(=O)[C@H]([C@@H](C)CC)NC(=O)[C@H](CC(=O)O)NC(=O)[C@@H](NC(C)=O)CSSC[C@@H]3NC(=O)[C@H](CCCCNC(=O)C[C@@H](C(=O)N[C@@H](CC(C)C)C(N)=O)NC(=O)[C@H](CCC(=O)O)NC(=O)[C@H](Cc4ccccc4)NC3=O)NC(=O)[C@H](Cc3c[nH]c4ccccc34)NC(=O)[C@H](CCC(=O)O)NC(=O)[C@H](Cc3c[nH]c4ccccc34)NC2=O)NC(=O)[C@H](C(C)C)NC(=O)[C@H](Cc2cnc[nH]2)NC1=O (I: Ac-CDIHVKWEWKCFEDL-NH2 / II: Ac-CDIHVKWEWKCFEDL-NH2; disulfide I:1-I:11, II:1-II:11; linker I:6-II:6 via CO(CH2CH2O)5CH2CH2CO; lactam I:10-I:14, II:10-II:14) | -37.7 | -10 | Dose-Dependent Effect | -46.4 | 89 | -0.51 | -10.4 | 27.3 | Dose-Dependent Effect | 18 | 36.4 | –
CC[C@H](C)[C@@H]1NC(=O)[C@H](CC(=O)O)NC(=O)[C@@H](NC(C)=O)CSSC[C@@H]2NC(=O)[C@H](CCCCNC(=O)C[C@@H](C(=O)N[C@@H](CC(C)C)C(N)=O)NC(=O)[C@H](CCC(=O)O)NC(=O)[C@H](Cc3ccccc3)NC2=O)NC(=O)[C@H](Cc2c[nH]c3ccccc23)NC(=O)[C@H](CCC(=O)O)NC(=O)[C@H](Cc2c[nH]c3ccccc23)NC(=O)[C@H](CCCCNC(=O)CCOCCOCCOCCOCCOCCOCCOCCOCCOCCOCCOCCOCCOCCOCCOCCOCCOCCOCCOCCOCCOCCOCCOCCOCCOCCC(=O)NCCCC[C@@H]2NC(=O)[C@H](C(C)C)NC(=O)[C@H](Cc3cnc[nH]3)NC(=O)[C@H]([C@@H](C)CC)NC(=O)[C@H](CC(=O)O)NC(=O)[C@@H](NC(C)=O)CSSC[C@@H]3NC(=O)[C@H](CCCCNC(=O)C[C@@H](C(=O)N[C@@H](CC(C)C)C(N)=O)NC(=O)[C@H](CCC(=O)O)NC(=O)[C@H](Cc4ccccc4)NC3=O)NC(=O)[C@H](Cc3c[nH]c4ccccc34)NC(=O)[C@H](CCC(=O)O)NC(=O)[C@H](Cc3c[nH]c4ccccc34)NC2=O)NC(=O)[C@H](C(C)C)NC(=O)[C@H](Cc2cnc[nH]2)NC1=O (I: Ac-CDIHVKWEWKCFEDL-NH2 / II: Ac-CDIHVKWEWKCFEDL-NH2; disulfide I:1-I:11, II:1-II:11; linker I:6-II:6 via X1; lactam I:10-I:14, II:10-II:14) | -37.5 | -10.8 | Dose-Dependent Effect | -50.3 | 26 | -0.75 | -10.8 | 26.7 | Dose-Dependent Effect | 9 | 39.5 | Kd [12]: 11 nM; deltaH [13]: -37.4 kcal/mol; deltaS [14]: -95.4 cal/mol.K; Kd [15]: 12 nM; deltaH [16]: -50.6 kcal/mol; deltaS [17]: -91.1 cal/mol.K; deltaH [18]: -35.6 kcal/mol; Kd [19]: 14 nM; deltaS [20]: -127 cal/mol.K; deltaH [21]: -50.2 kcal/mol; Kd [22]: 26 nM; deltaS [23]: -127 cal/mol.K
